ChEMBL document CHEMBL5303573, “Mapping human microbiome drug metabolism by gut bacteria and their genes” (Nature, 2019)

Tests used:
[1] = bacteroides thetaiotaomicron, 12 h, 2 µM
Description: The drug is tested on Bacteroides thetaiotaomicron strain: VPI-5482 for biotransformation. The drug concentrations were measured before and after a 12-h incubation by liquid-chromatography-coupled mass spectrometry (LC–MS)

[2] = roseburia intestinalis, 12 h, 2 µM
Description: The drug is tested on Roseburia intestinalis strain: L1-82 for biotransformation. The drug concentrations were measured before and after a 12-h incubation by liquid-chromatography-coupled mass spectrometry (LC–MS)

[3] = The drug is tested on Bifidobacterium longum subsp. Infantis strain: CCUG52486 for biotransformation. The drug concentrations were measured before and after a 12-h incubation by liquid-chromatography-coupled mass spectrometry (LC–MS); conditions: 2 µM
[4] = anaerostipes sp., 12 h, 2 µM
Description: The drug is tested on Anaerostipes sp. strain: fecal isolate for biotransformation. The drug concentrations were measured before and after a 12-h incubation by liquid-chromatography-coupled mass spectrometry (LC–MS)

[5] = The drug is tested on Ruminococcus torques strain: ATCC27756 for biotransformation. The drug concentrations were measured before and after a 12-h incubation by liquid-chromatography-coupled mass spectrometry (LC–MS); assay type: ADME; parameters: dose 2 uM, timepoint 0 vs 12 hours; conditions: 2 µM
[6] = The drug is tested on Ruminococcus gnavus strain: ATCC29149 for biotransformation. The drug concentrations were measured before and after a 12-h incubation by liquid-chromatography-coupled mass spectrometry (LC–MS); conditions: mediterraneibacter gnavus, 2 µM
[7] = bacteroides thetaiotaomicron, 12 h, 2 µM; remark: listed apart in the source
Description: The drug is tested on Bacteroides thetaiotaomicron strain: 7330 for biotransformation. The drug concentrations were measured before and after a 12-h incubation by liquid-chromatography-coupled mass spectrometry (LC–MS)

[8] = The drug is tested on Bacteroides xylanisolvens strain: DSM18836 for biotransformation. The drug concentrations were measured before and after a 12-h incubation by liquid-chromatography-coupled mass spectrometry (LC–MS); conditions: 2 µM
[9] = The drug is tested on Dorea formicigenerans strain: ATCC27755 for biotransformation. The drug concentrations were measured before and after a 12-h incubation by liquid-chromatography-coupled mass spectrometry (LC–MS); conditions: 2 µM
[10] = bacteroides intestinalis, 12 h, 2 µM
Description: The drug is tested on Bacteroides intestinalis strain: DSM17393 for biotransformation. The drug concentrations were measured before and after a 12-h incubation by liquid-chromatography-coupled mass spectrometry (LC–MS)

[11] = The drug is tested on Clostridium sp. strain: fecal isolate for biotransformation. The drug concentrations were measured before and after a 12-h incubation by liquid-chromatography-coupled mass spectrometry (LC–MS); conditions: 2 µM
[12] = bacteroides thetaiotaomicron, 12 h, 2 µM; remark: listed apart in the source
Description: The drug is tested on Bacteroides thetaiotaomicron strain: 3731 for biotransformation. The drug concentrations were measured before and after a 12-h incubation by liquid-chromatography-coupled mass spectrometry (LC–MS)

[13] = bifidobacterium adolescentis, 12 h, 2 µM
Description: The drug is tested on Bifidobacterium adolescentis strain: ATCC 15703 for biotransformation. The drug concentrations were measured before and after a 12-h incubation by liquid-chromatography-coupled mass spectrometry (LC–MS)

[14] = The drug is tested on Alistipes indistinctus strain: DSM22520 for biotransformation. The drug concentrations were measured before and after a 12-h incubation by liquid-chromatography-coupled mass spectrometry (LC–MS); conditions: 2 µM
[15] = bacteroides fragilis, 12 h, 2 µM
Description: The drug is tested on Bacteroides fragilis strain: 3397 (T10) for biotransformation. The drug concentrations were measured before and after a 12-h incubation by liquid-chromatography-coupled mass spectrometry (LC–MS)

[16] = parabacteroides distasonis, 12 h, 2 µM
Description: The drug is tested on Parabacteroides distasonis strain: ATCC8503 for biotransformation. The drug concentrations were measured before and after a 12-h incubation by liquid-chromatography-coupled mass spectrometry (LC–MS)

[17] = The drug is tested on Enterobacter cancerogenus strain: ATCC35316 for biotransformation. The drug concentrations were measured before and after a 12-h incubation by liquid-chromatography-coupled mass spectrometry (LC–MS); conditions: 2 µM
[18] = The drug is tested on Anaerotruncus colihominis strain: DSM17241 for biotransformation. The drug concentrations were measured before and after a 12-h incubation by liquid-chromatography-coupled mass spectrometry (LC–MS); conditions: 2 µM
[19] = The drug is tested on Bacteroides finegoldii strain: DSM17565 for biotransformation. The drug concentrations were measured before and after a 12-h incubation by liquid-chromatography-coupled mass spectrometry (LC–MS); conditions: 2 µM
[20] = The drug is tested on Bacteroides coprophilus strain: DSM18228 for biotransformation. The drug concentrations were measured before and after a 12-h incubation by liquid-chromatography-coupled mass spectrometry (LC–MS); conditions: 2 µM

N#Cc1ccc(C(c2ccc(C#N)cc2)n2cncn2)cc1 [LETROZOLE]
Bacterial Biotransformation [1]: Compound NOT metabolized | Bacterial Biotransformation [2]: Compound NOT metabolized | Bacterial Biotransformation [3]: Compound NOT metabolized | Bacterial Biotransformation [4]: Compound NOT metabolized | Bacterial Biotransformation [5]: Compound NOT metabolized | Bacterial Biotransformation [6]: Compound NOT metabolized | Bacterial Biotransformation [7]: Compound NOT metabolized | Bacterial Biotransformation [8]: Compound NOT metabolized | Bacterial Biotransformation [9]: Compound NOT metabolized | Bacterial Biotransformation [10]: Compound NOT metabolized | Bacterial Biotransformation [11]: Compound NOT metabolized | Bacterial Biotransformation [12]: Compound NOT metabolized | Bacterial Biotransformation [13]: Compound NOT metabolized | Bacterial Biotransformation [14]: Compound NOT metabolized | Bacterial Biotransformation [15]: Compound NOT metabolized | Bacterial Biotransformation [16]: Compound NOT metabolized | Bacterial Biotransformation [17]: Compound NOT metabolized | Bacterial Biotransformation [18]: Compound NOT metabolized | Bacterial Biotransformation [19]: Compound NOT metabolized | Bacterial Biotransformation [20]: Compound NOT metabolized

CN1CCN(C2=Nc3ccccc3Oc3ccc(Cl)cc32)CC1.O=C(O)CCC(=O)O [LOXAPINE SUCCINATE]
Bacterial Biotransformation [1]: Compound NOT metabolized | Bacterial Biotransformation [2]: Compound NOT metabolized | Bacterial Biotransformation [3]: Compound NOT metabolized | Bacterial Biotransformation [4]: Compound NOT metabolized | Bacterial Biotransformation [5]: Compound NOT metabolized | Bacterial Biotransformation [6]: Compound NOT metabolized | Bacterial Biotransformation [7]: Compound NOT metabolized | Bacterial Biotransformation [8]: Compound NOT metabolized | Bacterial Biotransformation [9]: Compound NOT metabolized | Bacterial Biotransformation [10]: Compound NOT metabolized | Bacterial Biotransformation [11]: Compound NOT metabolized | Bacterial Biotransformation [12]: Compound NOT metabolized | Bacterial Biotransformation [13]: Compound NOT metabolized | Bacterial Biotransformation [14]: Compound NOT metabolized | Bacterial Biotransformation [15]: Compound NOT metabolized | Bacterial Biotransformation [16]: Compound NOT metabolized | Bacterial Biotransformation [17]: Compound NOT metabolized | Bacterial Biotransformation [18]: Compound NOT metabolized | Bacterial Biotransformation [19]: Compound NOT metabolized | Bacterial Biotransformation [20]: Compound NOT metabolized

COc1ccccc1N1CCN(CC(O)COc2cccc3ccccc23)CC1 (stereo not given) [NAFTOPIDIL]
Bacterial Biotransformation [1]: Compound NOT metabolized | Bacterial Biotransformation [2]: Compound NOT metabolized | Bacterial Biotransformation [3]: Compound NOT metabolized | Bacterial Biotransformation [4]: Compound NOT metabolized | Bacterial Biotransformation [5]: Compound NOT metabolized | Bacterial Biotransformation [6]: Compound NOT metabolized | Bacterial Biotransformation [7]: Compound NOT metabolized | Bacterial Biotransformation [8]: Compound NOT metabolized | Bacterial Biotransformation [9]: Compound NOT metabolized | Bacterial Biotransformation [10]: Compound NOT metabolized | Bacterial Biotransformation [11]: Compound NOT metabolized | Bacterial Biotransformation [12]: Compound NOT metabolized | Bacterial Biotransformation [13]: Compound NOT metabolized | Bacterial Biotransformation [14]: Compound NOT metabolized | Bacterial Biotransformation [15]: Compound NOT metabolized | Bacterial Biotransformation [16]: Compound NOT metabolized | Bacterial Biotransformation [17]: Compound NOT metabolized | Bacterial Biotransformation [18]: Compound NOT metabolized | Bacterial Biotransformation [19]: Compound NOT metabolized | Bacterial Biotransformation [20]: Compound NOT metabolized

CO[C@]12C[C@@H](COC(=O)c3cncc(Br)c3)CN(C)[C@@H]1Cc1cn(C)c3cccc2c13 [NICERGOLINE]
Bacterial Biotransformation [1]: Compound NOT metabolized | Bacterial Biotransformation [2]: Compound NOT metabolized | Bacterial Biotransformation [3]: Compound NOT metabolized | Bacterial Biotransformation [4]: Compound NOT metabolized | Bacterial Biotransformation [5]: Compound NOT metabolized | Bacterial Biotransformation [6]: Compound NOT metabolized | Bacterial Biotransformation [7]: Compound NOT metabolized | Bacterial Biotransformation [8]: Compound NOT metabolized | Bacterial Biotransformation [9]: Compound NOT metabolized | Bacterial Biotransformation [10]: Compound NOT metabolized | Bacterial Biotransformation [11]: Compound NOT metabolized | Bacterial Biotransformation [12]: Compound NOT metabolized | Bacterial Biotransformation [13]: Compound NOT metabolized | Bacterial Biotransformation [14]: Compound NOT metabolized | Bacterial Biotransformation [15]: Compound NOT metabolized | Bacterial Biotransformation [16]: Compound NOT metabolized | Bacterial Biotransformation [17]: Compound NOT metabolized | Bacterial Biotransformation [18]: Compound NOT metabolized | Bacterial Biotransformation [19]: Compound NOT metabolized | Bacterial Biotransformation [20]: Compound NOT metabolized

Fc1ccc([C@@H]2CCNC[C@H]2COc2ccc3c(c2)OCO3)cc1 [PAROXETINE]
Bacterial Biotransformation [1]: Compound NOT metabolized | Bacterial Biotransformation [2]: Compound NOT metabolized | Bacterial Biotransformation [3]: Compound NOT metabolized | Bacterial Biotransformation [4]: Compound metabolized | Bacterial Biotransformation [5]: Compound NOT metabolized | Bacterial Biotransformation [6]: Compound NOT metabolized | Bacterial Biotransformation [7]: Compound NOT metabolized | Bacterial Biotransformation [8]: Compound NOT metabolized | Bacterial Biotransformation [9]: Compound NOT metabolized | Bacterial Biotransformation [10]: Compound NOT metabolized | Bacterial Biotransformation [11]: Compound metabolized | Bacterial Biotransformation [12]: Compound metabolized | Bacterial Biotransformation [13]: Compound NOT metabolized | Bacterial Biotransformation [14]: Compound NOT metabolized | Bacterial Biotransformation [15]: Compound NOT metabolized | Bacterial Biotransformation [16]: Compound NOT metabolized | Bacterial Biotransformation [17]: Compound metabolized | Bacterial Biotransformation [18]: Compound metabolized | Bacterial Biotransformation [19]: Compound metabolized | Bacterial Biotransformation [20]: Compound NOT metabolized
